Legend:
[1] = target: Protein kinase C beta type (Homo sapiens, UniProt P05771); assay: Inhibition of PKCb2 (unknown origin)
[2] = target: BMP-2-inducible protein kinase (Homo sapiens, UniProt Q9NSY1); assay: Inhibition of BIKE (unknown origin)
[3] = target: T1, AP2-associated protein kinase 1 (Homo sapiens, UniProt Q2M2I8); assay: Inhibition of bacterially expressed GST-Xa-tagged human AAK1 using 5-FAM-labelled Aha-KEEQSQITSQVTGQIGWR-NH2 peptide as substrate incubated for 3 hrs in presence of ATP by electrophoretic analysis
[4] = target: Myosin light chain kinase 2, skeletal/cardiac muscle (Homo sapiens, UniProt Q9H1R3); assay: Inhibition of MYLK2 (unknown origin)
[5] = Metabolic stability in rat liver microsomes assessed as parent compound remaining at 0.5 uM incubated for 10 mins in presence of NADPH by LC-MS/MS analysis; assay type: ADME, Microsome; conditions: read-out: Stability
[6] = target: T1, AP2-associated protein kinase 1; assay: Inhibition of full length human AAK1 expressed in HEK293F cells assessed as suppression of AP2 phosphorylation measured after 3 hrs by Western blot analysis based cellular assay; assay type: cell-based
Aurora kinase C = Aurora kinase C (Homo sapiens, UniProt Q9UQB9); assay: Inhibition of AURC (unknown origin)
[7] = Metabolic stability in human liver microsomes assessed as parent compound remaining at 0.5 uM incubated for 10 mins in presence of NADPH by LC-MS/MS analysis; assay type: ADME, Microsome; conditions: read-out: Stability
[8] = target: Citron Rho-interacting kinase (Homo sapiens, UniProt O14578); assay: Inhibition of CRIK (unknown origin)
[9] = target: AP2-associated protein kinase 1 (Mus musculus, UniProt Q3UHJ0); assay: Displacement of 3H-LP-927443 from AAK1 in C57BL6 mouse brain homogenate assessed as inhibition constant incubated for 1 hr by liquid scintillation counter analysis; assay type: tissue-based
Cytochrome P450 3A4 = Cytochrome P450 3A4 (Homo sapiens, UniProt P08684); assay: Inhibition of CYP3A4 (unknown origin) incubated for 10 mins in presence of NADPH by LC-MS/MS analysis; assay type: ADME
[10] = Metabolic stability in mouse liver microsomes assessed as parent compound remaining at 0.5 uM incubated for 10 mins in presence of NADPH by LC-MS/MS analysis; assay type: ADME, Microsome; conditions: liver microsomes, read-out: Stability
[11] = Cardiotoxicity in aortic ring (unknown origin) assessed as relaxation of phenylephrine induced aortic ring contraction at 10 uM incubated for 1 hr; assay type: toxicity, tissue-based, Aorta; parameters: scale not given: the % may be the effect or the level left; conditions: human
[12] = target: MAP kinase-interacting serine/threonine-protein kinase 1 (Homo sapiens, UniProt Q9BUB5); assay: Inhibition of MNK1 (unknown origin)
[13] = target: Dual specificity protein kinase CLK1 (Homo sapiens, UniProt P49759); assay: Inhibition of CLK1 (unknown origin)
[14] = target: MAP kinase-interacting serine/threonine-protein kinase 2 (Homo sapiens, UniProt Q9HBH9); assay: Inhibition of MNK2 (unknown origin)
[15] = target: Rho-associated protein kinase 2 (Homo sapiens, UniProt O75116); assay: Inhibition of ROCK2 (unknown origin)
[16] = target: Dual specificity protein kinase CLK4 (Homo sapiens, UniProt Q9HAZ1); assay: Inhibition of CLK4 (unknown origin)
[17] = target: T2, Homeodomain-interacting protein kinase 4 (Homo sapiens, UniProt Q8NE63); assay: Inhibition of HIPK4 (unknown origin)
T2 sequence (Q8NE63 whole entry): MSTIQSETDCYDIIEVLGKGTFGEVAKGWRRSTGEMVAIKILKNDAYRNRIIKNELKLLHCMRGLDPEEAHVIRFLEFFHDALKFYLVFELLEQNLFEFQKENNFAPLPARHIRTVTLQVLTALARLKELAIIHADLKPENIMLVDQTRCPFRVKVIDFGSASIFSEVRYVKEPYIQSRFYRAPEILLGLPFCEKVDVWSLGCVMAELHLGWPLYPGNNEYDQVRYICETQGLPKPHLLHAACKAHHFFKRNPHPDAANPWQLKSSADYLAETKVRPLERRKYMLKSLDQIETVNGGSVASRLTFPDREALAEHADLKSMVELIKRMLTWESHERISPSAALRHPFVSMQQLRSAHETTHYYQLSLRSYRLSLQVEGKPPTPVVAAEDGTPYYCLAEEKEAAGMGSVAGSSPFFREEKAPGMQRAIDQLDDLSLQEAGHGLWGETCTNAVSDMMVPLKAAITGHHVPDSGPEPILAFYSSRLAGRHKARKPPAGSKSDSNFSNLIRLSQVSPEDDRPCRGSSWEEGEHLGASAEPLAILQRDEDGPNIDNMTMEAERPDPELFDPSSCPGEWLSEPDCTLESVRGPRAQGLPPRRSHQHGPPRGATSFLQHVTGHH

[18] = target: T3, Dual specificity mitogen-activated protein kinase kinase 1 (Homo sapiens, UniProt Q02750); assay: Inhibition of MAP2K1 (unknown origin)
[19] = target: T3, Dual specificity mitogen-activated protein kinase kinase 1; assay: Inhibition of MEK1 (unknown origin)
[20] = Inhibition of IGFR (unknown origin); parameters: species or system Homo sapiens
[21] = target: T4, Cyclin-G-associated kinase (Homo sapiens, UniProt O14976); assay: Inhibition of GAK (unknown origin)
T4 sequence (O14976 whole entry): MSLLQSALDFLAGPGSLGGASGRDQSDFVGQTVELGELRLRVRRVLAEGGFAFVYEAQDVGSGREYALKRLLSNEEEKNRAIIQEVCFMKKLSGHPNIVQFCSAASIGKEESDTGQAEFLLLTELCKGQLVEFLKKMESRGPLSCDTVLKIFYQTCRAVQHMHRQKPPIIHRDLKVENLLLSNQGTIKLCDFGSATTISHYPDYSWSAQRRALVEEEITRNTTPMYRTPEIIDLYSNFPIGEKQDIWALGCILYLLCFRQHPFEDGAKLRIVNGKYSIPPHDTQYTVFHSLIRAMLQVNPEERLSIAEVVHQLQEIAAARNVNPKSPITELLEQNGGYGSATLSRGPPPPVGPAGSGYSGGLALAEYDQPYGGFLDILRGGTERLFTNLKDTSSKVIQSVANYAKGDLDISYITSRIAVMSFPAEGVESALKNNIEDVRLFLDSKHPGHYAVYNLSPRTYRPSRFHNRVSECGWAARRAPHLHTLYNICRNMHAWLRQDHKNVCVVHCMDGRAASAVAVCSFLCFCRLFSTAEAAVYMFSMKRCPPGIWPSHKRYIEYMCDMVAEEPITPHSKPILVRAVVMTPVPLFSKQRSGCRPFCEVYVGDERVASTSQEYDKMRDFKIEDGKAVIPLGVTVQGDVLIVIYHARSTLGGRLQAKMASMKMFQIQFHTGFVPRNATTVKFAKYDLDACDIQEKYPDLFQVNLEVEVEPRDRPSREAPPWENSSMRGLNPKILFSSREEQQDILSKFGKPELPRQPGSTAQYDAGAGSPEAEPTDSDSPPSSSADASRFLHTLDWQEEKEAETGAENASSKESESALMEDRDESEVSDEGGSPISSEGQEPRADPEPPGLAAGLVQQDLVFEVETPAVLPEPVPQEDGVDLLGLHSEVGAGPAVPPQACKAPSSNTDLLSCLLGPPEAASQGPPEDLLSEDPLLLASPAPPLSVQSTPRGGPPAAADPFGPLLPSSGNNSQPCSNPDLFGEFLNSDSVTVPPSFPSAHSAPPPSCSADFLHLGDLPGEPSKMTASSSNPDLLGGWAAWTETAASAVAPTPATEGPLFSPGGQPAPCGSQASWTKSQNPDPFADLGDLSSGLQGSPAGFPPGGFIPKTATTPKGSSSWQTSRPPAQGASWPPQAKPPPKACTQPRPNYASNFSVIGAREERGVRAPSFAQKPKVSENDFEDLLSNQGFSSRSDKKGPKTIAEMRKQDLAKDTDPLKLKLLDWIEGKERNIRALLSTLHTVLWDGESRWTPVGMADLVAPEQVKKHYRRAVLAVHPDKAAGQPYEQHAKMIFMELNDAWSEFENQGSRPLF

Myotonin-protein kinase = Myotonin-protein kinase (Homo sapiens, UniProt Q09013); assay: Inhibition of DMPK1 (unknown origin)
[22] = target: Death-associated protein kinase 1 (Homo sapiens, UniProt P53355); assay: Inhibition of DAPK1 (unknown origin)
[23] = Inhibition of CK2A2 (unknown origin); parameters: species or system Homo sapiens
[24] = Inhibition of MEK (unknown origin); parameters: species or system Homo sapiens
[25] = target: Death-associated protein kinase 3 (Homo sapiens, UniProt O43293); assay: Inhibition of DAPK3 (unknown origin)
[26] = target: Tyrosine-protein kinase receptor TYRO3 (Homo sapiens, UniProt Q06418); assay: Inhibition of TYRO3 (unknown origin)
[27] = target: Serine/threonine-protein kinase N2 (Homo sapiens, UniProt Q16513); assay: Inhibition of PKN2 (unknown origin)
[28] = target: STE20/SPS1-related proline-alanine-rich protein kinase (Homo sapiens, UniProt Q9UEW8); assay: Inhibition of STLK3 (unknown origin)
[29] = target: Serine/threonine-protein kinase tousled-like 2 (Homo sapiens, UniProt Q86UE8); assay: Inhibition of TLK2 (unknown origin)
[30] = target: Serine/threonine-protein kinase tousled-like 1 (Homo sapiens, UniProt Q9UKI8); assay: Inhibition of TLK1 (unknown origin)
[31] = target: T3, Dual specificity mitogen-activated protein kinase kinase 1; assay: Inhibition of MEK1/MAP2K1 (unknown origin)
[32] = target: Tyrosine-protein kinase JAK2 (Homo sapiens, UniProt O60674); assay: Inhibition of JAK2 (unknown origin)

Sequence of MAP kinase-interacting serine/threonine-protein kinase 2 (Q9HBH9 whole entry): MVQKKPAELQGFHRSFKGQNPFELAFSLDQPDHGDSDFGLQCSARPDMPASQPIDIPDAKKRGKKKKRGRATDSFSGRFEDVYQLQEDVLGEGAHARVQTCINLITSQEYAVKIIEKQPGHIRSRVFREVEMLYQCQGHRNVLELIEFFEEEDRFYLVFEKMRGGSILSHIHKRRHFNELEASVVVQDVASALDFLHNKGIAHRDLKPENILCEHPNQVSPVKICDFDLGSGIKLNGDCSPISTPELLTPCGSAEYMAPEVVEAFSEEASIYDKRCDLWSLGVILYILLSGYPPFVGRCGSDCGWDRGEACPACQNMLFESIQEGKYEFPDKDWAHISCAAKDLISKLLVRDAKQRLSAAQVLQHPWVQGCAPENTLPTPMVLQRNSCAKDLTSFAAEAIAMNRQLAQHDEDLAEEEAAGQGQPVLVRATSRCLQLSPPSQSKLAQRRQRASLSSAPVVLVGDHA
Sequence of AP2-associated protein kinase 1 (Mus musculus, UniProt Q3UHJ0) (Q3UHJ0 whole entry): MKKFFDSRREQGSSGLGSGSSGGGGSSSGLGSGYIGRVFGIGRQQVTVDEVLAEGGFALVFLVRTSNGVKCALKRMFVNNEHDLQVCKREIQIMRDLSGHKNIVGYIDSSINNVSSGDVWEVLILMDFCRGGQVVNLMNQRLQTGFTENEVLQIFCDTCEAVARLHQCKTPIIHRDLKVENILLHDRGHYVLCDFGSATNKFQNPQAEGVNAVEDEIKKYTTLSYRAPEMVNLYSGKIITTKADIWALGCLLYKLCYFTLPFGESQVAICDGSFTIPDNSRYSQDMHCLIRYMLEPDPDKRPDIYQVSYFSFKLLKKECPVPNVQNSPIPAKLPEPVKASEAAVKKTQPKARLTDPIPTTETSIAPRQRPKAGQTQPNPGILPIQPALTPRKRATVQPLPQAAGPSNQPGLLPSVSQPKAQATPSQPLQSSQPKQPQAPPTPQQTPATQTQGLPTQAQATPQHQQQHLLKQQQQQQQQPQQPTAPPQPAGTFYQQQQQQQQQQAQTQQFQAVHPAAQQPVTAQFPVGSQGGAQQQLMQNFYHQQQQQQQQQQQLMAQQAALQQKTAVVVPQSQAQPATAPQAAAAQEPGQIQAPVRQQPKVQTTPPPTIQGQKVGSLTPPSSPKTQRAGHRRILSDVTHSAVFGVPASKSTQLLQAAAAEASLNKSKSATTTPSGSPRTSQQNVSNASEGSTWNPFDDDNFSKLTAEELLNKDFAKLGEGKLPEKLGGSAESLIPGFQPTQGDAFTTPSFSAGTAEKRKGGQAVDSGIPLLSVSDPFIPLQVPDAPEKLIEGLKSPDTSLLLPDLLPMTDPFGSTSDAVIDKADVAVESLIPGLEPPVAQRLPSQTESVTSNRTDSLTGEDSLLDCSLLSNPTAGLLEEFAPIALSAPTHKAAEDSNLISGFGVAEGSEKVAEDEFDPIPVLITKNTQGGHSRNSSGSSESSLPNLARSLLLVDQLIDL
Sequence of Rho-associated protein kinase 2 (O75116 whole entry): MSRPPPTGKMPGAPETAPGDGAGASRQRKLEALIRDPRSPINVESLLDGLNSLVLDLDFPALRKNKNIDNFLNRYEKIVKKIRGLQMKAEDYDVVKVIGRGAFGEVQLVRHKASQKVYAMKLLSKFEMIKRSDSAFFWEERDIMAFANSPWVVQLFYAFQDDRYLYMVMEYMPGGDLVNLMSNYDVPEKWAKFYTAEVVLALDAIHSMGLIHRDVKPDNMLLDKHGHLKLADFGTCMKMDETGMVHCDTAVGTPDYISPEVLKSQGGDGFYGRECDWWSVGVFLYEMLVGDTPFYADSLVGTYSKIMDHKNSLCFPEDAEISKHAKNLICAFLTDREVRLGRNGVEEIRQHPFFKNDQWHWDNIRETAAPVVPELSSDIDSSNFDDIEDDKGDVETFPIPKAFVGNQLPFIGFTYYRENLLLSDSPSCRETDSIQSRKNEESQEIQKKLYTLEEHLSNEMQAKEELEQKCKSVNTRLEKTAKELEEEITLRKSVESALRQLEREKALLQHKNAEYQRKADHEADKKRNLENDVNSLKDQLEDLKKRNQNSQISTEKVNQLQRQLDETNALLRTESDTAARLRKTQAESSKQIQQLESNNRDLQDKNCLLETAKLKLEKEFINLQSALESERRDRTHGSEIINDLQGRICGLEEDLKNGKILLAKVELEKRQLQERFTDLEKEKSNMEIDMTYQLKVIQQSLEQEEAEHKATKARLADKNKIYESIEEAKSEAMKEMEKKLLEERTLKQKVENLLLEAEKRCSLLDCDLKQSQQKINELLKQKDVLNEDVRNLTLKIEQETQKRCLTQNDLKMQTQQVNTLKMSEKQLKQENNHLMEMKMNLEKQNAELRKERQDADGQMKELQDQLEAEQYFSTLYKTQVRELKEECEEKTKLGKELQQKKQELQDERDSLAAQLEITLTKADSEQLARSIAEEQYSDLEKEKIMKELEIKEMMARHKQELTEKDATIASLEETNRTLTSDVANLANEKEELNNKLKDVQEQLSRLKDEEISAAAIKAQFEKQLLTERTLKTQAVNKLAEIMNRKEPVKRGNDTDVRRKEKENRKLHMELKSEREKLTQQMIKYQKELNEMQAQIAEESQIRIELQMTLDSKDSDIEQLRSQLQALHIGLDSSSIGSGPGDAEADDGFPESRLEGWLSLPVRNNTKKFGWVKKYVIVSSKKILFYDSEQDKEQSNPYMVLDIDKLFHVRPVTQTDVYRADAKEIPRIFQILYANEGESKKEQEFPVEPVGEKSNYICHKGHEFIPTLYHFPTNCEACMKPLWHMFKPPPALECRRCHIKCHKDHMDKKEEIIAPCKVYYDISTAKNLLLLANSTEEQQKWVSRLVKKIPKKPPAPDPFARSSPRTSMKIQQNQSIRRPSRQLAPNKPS
T3 sequence (Q02750 whole entry): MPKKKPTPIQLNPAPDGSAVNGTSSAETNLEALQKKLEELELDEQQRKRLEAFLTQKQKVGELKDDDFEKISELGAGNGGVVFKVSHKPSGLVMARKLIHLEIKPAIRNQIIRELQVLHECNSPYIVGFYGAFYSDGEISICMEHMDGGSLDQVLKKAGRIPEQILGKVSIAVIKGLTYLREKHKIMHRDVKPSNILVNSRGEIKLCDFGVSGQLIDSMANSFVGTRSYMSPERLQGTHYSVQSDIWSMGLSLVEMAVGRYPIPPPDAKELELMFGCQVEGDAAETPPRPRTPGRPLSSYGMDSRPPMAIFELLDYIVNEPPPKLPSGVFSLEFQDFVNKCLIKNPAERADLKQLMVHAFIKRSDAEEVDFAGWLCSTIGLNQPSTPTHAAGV
Sequence of MAP kinase-interacting serine/threonine-protein kinase 1 (Q9BUB5 whole entry): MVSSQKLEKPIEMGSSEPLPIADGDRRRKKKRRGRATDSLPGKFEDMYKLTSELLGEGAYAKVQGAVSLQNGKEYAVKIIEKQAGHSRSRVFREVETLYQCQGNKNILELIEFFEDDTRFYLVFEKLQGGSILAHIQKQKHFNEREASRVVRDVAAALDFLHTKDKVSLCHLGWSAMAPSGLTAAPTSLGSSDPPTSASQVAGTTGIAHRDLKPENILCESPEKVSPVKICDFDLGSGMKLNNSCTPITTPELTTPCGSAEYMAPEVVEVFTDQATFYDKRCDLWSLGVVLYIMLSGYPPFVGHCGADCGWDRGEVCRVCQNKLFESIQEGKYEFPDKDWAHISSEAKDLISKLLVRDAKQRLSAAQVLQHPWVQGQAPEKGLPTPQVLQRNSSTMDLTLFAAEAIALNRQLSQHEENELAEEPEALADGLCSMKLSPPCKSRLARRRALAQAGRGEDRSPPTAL
Sequence of Cytochrome P450 3A4 (P08684 whole entry): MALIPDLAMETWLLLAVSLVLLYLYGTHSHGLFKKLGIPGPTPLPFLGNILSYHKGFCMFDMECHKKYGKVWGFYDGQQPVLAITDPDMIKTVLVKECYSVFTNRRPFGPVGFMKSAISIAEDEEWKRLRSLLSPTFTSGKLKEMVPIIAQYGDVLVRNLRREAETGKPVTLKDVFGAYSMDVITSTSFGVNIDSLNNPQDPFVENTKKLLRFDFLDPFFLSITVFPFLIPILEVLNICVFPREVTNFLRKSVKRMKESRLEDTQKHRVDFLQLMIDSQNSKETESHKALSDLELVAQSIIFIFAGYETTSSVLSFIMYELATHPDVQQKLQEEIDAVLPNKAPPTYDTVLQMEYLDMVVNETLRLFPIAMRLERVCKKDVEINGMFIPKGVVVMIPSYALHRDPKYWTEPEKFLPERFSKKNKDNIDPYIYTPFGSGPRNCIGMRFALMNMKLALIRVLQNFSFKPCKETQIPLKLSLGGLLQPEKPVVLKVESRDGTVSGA
Sequence of Death-associated protein kinase 3 (O43293 whole entry): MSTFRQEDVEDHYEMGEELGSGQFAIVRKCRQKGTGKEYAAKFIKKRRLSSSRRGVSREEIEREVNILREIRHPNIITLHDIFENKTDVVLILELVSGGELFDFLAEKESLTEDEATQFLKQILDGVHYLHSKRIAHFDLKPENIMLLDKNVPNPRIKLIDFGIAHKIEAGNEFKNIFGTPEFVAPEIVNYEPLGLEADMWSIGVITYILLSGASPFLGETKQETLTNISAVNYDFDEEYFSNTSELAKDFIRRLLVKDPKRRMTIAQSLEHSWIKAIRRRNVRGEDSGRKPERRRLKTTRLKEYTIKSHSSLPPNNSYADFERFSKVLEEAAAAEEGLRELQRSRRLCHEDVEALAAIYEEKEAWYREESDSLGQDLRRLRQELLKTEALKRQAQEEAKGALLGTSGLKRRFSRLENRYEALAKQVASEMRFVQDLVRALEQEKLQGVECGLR
Sequence of Aurora kinase C (Q9UQB9 whole entry): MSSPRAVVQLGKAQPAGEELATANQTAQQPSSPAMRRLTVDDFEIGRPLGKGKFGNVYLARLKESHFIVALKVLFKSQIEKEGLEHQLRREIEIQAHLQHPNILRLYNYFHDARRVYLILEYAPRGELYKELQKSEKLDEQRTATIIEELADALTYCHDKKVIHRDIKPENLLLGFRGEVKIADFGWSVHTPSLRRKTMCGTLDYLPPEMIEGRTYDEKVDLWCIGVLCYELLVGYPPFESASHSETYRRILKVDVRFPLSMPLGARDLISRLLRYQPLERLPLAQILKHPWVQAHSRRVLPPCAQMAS

Cc1cc(-c2cc(C(F)F)c(OC[C@@](C)(N)CC(C)C)cn2)ccn1
IC50 [1]: 1600 nM
IC50 [2]: 180 nM
IC50 [3]: 0.5 nM
IC50 [4]: 350 nM
remaining at 10 min, 0.5 µM [5]: 81%
IC50 [6]: 0.9 nM
IC50 (Aurora kinase C): 540 nM
remaining at 10 min, 0.5 µM [7]: 84%
IC50 [8]: 750 nM
Ki [9]: 0.18 nM
IC50 (Cytochrome P450 3A4): > 20000 nM
remaining at 10 min, 0.5 µM [10]: 76%
Activity [11]: 85%
IC50 [12]: 250 nM

COC(=O)Nc1cc(-c2cnc(OC[C@@](C)(N)CC(C)C)c(C#N)c2)ccn1
IC50 [3]: 1 nM
remaining at 10 min, 0.5 µM [5]: 80%
IC50 [13]: 1700 nM
IC50 [14]: 900 nM
remaining at 10 min, 0.5 µM [7]: 95%
Ki [9]: 0.15 nM
IC50 (Cytochrome P450 3A4): 2200 nM
IC50 [15]: 1100 nM
remaining at 10 min, 0.5 µM [10]: 86%
Activity [11]: 95%
IC50 [16]: 590 nM

COC(=O)Nc1cc(-c2cnc(OC[C@@](C)(N)CC(C)C)c(Cl)c2)ccn1
IC50 [2]: 6 nM
IC50 [3]: 0.4 nM
remaining at 10 min, 0.5 µM [5]: 73%
IC50 [6]: 4.2 nM
IC50 [17]: 1300 nM
remaining at 10 min, 0.5 µM [7]: 90%
Ki [9]: 0.11 nM
IC50 (Cytochrome P450 3A4): > 20000 nM
IC50 [18]: 1860 nM
IC50 [15]: 1100 nM
remaining at 10 min, 0.5 µM [10]: 65%
Activity [11]: 87%
IC50 [19]: 1800 nM
IC50 [16]: 740 nM

CC(C)C[C@](C)(N)COc1cnc(-c2ccnc(Cl)c2)cc1C(F)F
IC50 [2]: 260 nM
IC50 [3]: 0.8 nM
remaining at 10 min, 0.5 µM [5]: 93%
IC50 [6]: 2.7 nM
IC50 [20]: 1700 nM
remaining at 10 min, 0.5 µM [7]: 92%
IC50 (Cytochrome P450 3A4): > 20000 nM
remaining at 10 min, 0.5 µM [10]: 93%
Activity [11]: 81%
IC50 [12]: 490 nM

COC(=O)Nc1cc(-c2ccc(OC[C@@](C)(N)CC(C)C)c(C(F)F)n2)ccn1
IC50 [2]: 20 nM
IC50 [3]: 0.8 nM
remaining at 10 min, 0.5 µM [5]: 91%
IC50 [21]: 160 nM
IC50 (Myotonin-protein kinase): 1500 nM
IC50 [14]: 120 nM
IC50 [22]: 560 nM
IC50 [23]: 680 nM
IC50 [17]: 650 nM
remaining at 10 min, 0.5 µM [7]: 77%
IC50 [24]: 610 nM
Ki [9]: 0.07 nM
IC50 (Cytochrome P450 3A4): > 20000 nM
IC50 [15]: 140 nM
remaining at 10 min, 0.5 µM [10]: 84%
IC50 [25]: 1100 nM
IC50 [26]: 1300 nM
Activity [11]: 89%

COC(=O)Nc1cc(-c2ccc(OC[C@@](C)(N)CC(C)C)c(Cl)n2)ccn1
IC50 [27]: 140 nM
IC50 [2]: 30 nM
IC50 [28]: 1400 nM
IC50 [3]: 0.5 nM
IC50 [4]: 650 nM
remaining at 10 min, 0.5 µM [5]: 99%
IC50 [29]: 1400 nM
IC50 [14]: 1200 nM
IC50 [6]: 1.2 nM
IC50 [22]: 810 nM
IC50 [17]: 1100 nM
IC50 [30]: 1200 nM
remaining at 10 min, 0.5 µM [7]: 93%
IC50 [8]: 90 nM
Ki [9]: 0.17 nM
IC50 (Cytochrome P450 3A4): > 20000 nM
remaining at 10 min, 0.5 µM [10]: 72%
IC50 [25]: 1100 nM
IC50 [31]: 1200 nM
Activity [11]: 74%
IC50 [32]: 1600 nM
IC50 [12]: 120 nM

— ChEMBL document CHEMBL5154787 (J Med Chem, 2022)
